Assay results taken from PMC12396409, “Screening and hit evaluation of a microbial metabolite library against the pathogenic Plasmodium falciparum and Toxoplasma gondii parasites” (International Journal for Parasitology: Drugs and Drug …, 2025).
Where two headings read alike, the source gives them in different places.

Experiments:
[1] = tested on: P. falciparum 3D7 parasites; test: P. falciparum growth inhibition assay, 1-cycle (72 h treatment), SYBR DNA staining (library screen at 2 μg/mL and dose-response); type: cell-based, Plasmodium falciparum
[2] = tested on: P. falciparum 3D7 parasites; test: P. falciparum growth inhibition assay, 2-cycle (120 h treatment), delayed-death screen and dose-response; type: cell-based, Plasmodium falciparum
[3] = tested on: T. gondii RH strain (RH-Tub-eYFP) tachyzoites; test: microbe, parasite or virus in culture; type: cell-based, Toxoplasma gondii; settings: 72 h; for percent parasite growth at 2 µg/mL: Toxoplasma gondii
[4] = library screen at 2 μg/mL, 72 h, % growth, replicate 1
[5] = library screen at 2 μg/mL, 72 h, % growth, replicate 2
[6] = library screen at 2 μg/mL, 120 h, % growth, replicate 1
[7] = library screen at 2 μg/mL, 120 h, % growth, replicate 2
[8] = library screen at 2 μg/mL, % growth, replicate 1
[9] = library screen at 2 μg/mL, % growth, replicate 2
[10] = T. gondii, screen at 2 μg/mL, replicate 1, read-out: Tg_72h_%Growth_Rep1
[11] = T. gondii, screen at 2 μg/mL, replicate 2, read-out: Tg_72h_%Growth_Rep2

SMILES | Pf_72h_%Growth_Rep1 [1, 4] [%] | Pf_72h_%Growth_Rep2 [1, 5] [%] | Pf_120h_%Growth_Rep1 [2, 6] [%] | Pf_120h_%Growth_Rep2 [2, 7] [%] | Tg_72h_%Growth_Rep1 [3, 8] [%] | Tg_72h_%Growth_Rep2 [3, 9] [%] | also measured
C[C@@H]1CCCCCCCCC[C@H](OC(=O)CCC(=O)O)C(=O)/C=C/C(=O)O1 [A 26771B] | 82.59 | 86.99 | 86.96 | 89.23 | 90.42 | 102.55 | –
CC(=O)OCc1c(O)c2c(c3c1OC(=O)c1c(C)cc(O)c(C=O)c1O3)C(O)OC2=O (stereo not drawn) [Galbinic acid] | 88.09 | 110.75 | 99.54 | 110.27 | 125.30 | 103.13 | –
CCCC(=O)OC1C(C)OC(OC2C(C)OC(OC3C(CC=O)CC(C)C(O)C=CC=CCC(C)OC(=O)CC(OC(C)=O)C3OC)C(O)C2N(C)C)CC1(C)O (stereo not drawn) [BIA-L1364] | – | – | – | – | – | – | Pf_72h_%Growth_Rep1 ([1]; P. falciparum 3D7, 72 h, library screen at 2 μg/mL, % growth, replicate 1): 50.48%; Pf_72h_%Growth_Rep2 ([1]; P. falciparum 3D7, 72 h, library screen at 2 μg/mL, % growth, replicate 2): 43.27%; Pf_120h_%Growth_Rep1 ([2]; P. falciparum 3D7, 120 h, library screen at 2 μg/mL, % growth, replicate 1): 4.30%; Pf_120h_%Growth_Rep2 ([2]; P. falciparum 3D7, 120 h, library screen at 2 μg/mL, % growth, replicate 2): -1.28%; Tg_72h_%Growth_Rep1 ([3]; T. gondii RH, library screen at 2 μg/mL, % growth, replicate 1): 19.43%; Tg_72h_%Growth_Rep2 ([3]; T. gondii RH, library screen at 2 μg/mL, % growth, replicate 2): 27.43%
CC[C@H](C)[C@H]1O[C@]2(C=C[C@@H]1C)C[C@@H]1C[C@@H](C/C=C(\C)[C@@H](O[C@H]3C[C@H](OC)[C@@H](O[C@H]4C[C@H](OC)[C@H](O)[C@H](C)O4)[C@H](C)O3)[C@@H](C)C=C/C=C3\CO[C@@H]4[C@H](O)C(C)C=C(C(=O)O1)[C@]34O)O2 (stereo partly drawn) [Avermectin B1a, delta2-] | 4.74 | 5.45 | 4.88 | -9.99 | 29.57 | 35.45 | –
CC1=C(O)C(=O)[C@@H]2O[C@@H]2C1=O [Terreic acid] | – | – | – | – | – | – | activity at 2 µg/mL ([1]; Plasmodium falciparum, 3D7, 72 h, P. falciparum, 72 h, screen at 2 μg/mL, replicate 1, read-out: Pf_72h_%Growth_Rep1): 89.2%; activity at 2 µg/mL ([1]; Plasmodium falciparum, 3D7, 72 h, P. falciparum, 72 h, screen at 2 μg/mL, replicate 2, read-out: Pf_72h_%Growth_Rep2): 121%; activity at 2 µg/mL ([2]; Plasmodium falciparum, 3D7, 120 h, P. falciparum, 120 h, screen at 2 μg/mL, replicate 1, read-out: Pf_120h_%Growth_Rep1): 100%; activity at 2 µg/mL ([2]; Plasmodium falciparum, 3D7, 120 h, P. falciparum, 120 h, screen at 2 μg/mL, replicate 2, read-out: Pf_120h_%Growth_Rep2): 98%; percent parasite growth at 2 µg/mL [3, 10]: 132%; percent parasite growth at 2 µg/mL [3, 11]: 83%
C/C=C(\C)[C@H](O)[C@H](C)/C=C(C)/C=C/C/C(C)=C/Cc1oc(OC)c(C)c(=O)c1C [Actinopyrone A] | 87.45 | 86.38 | 139.24 | 89.64 | 80.38 | 90.86 | –
CS(=O)(=O)c1ccc([C@@H](O)[C@@H](CO)NC(=O)C(Cl)Cl)cc1 [Thiamphenicol, reference compound] | – | – | – | – | – | – | activity at 2 µg/mL ([1]; Plasmodium falciparum, 3D7; P. falciparum, 2 μg/mL, 72 h; read-out: 1) Growth (%) at 72 h): 49.5%; activity at 2 µg/mL ([1]; Plasmodium falciparum, 3D7, P. falciparum, 72 h, screen at 2 μg/mL, replicate 1, read-out: Pf_72h_%Growth_Rep1): 37.6%; activity at 2 µg/mL ([1]; Plasmodium falciparum, 3D7, P. falciparum, 72 h, screen at 2 μg/mL, replicate 2, read-out: Pf_72h_%Growth_Rep2): 61.4%; 3) Fold change (72 h/120 h) ([2]; P. falciparum, growth at 72 h / growth at 120 h, 2 μg/mL): 2.5; activity at 2 µg/mL ([2]; Plasmodium falciparum, 3D7; P. falciparum, 2 μg/mL, 120 h; read-out: 2) Growth (%) at 120 h): 19.8%; activity at 2 µg/mL ([2]; Plasmodium falciparum, 3D7, P. falciparum, 120 h, screen at 2 μg/mL, replicate 1, read-out: Pf_120h_%Growth_Rep1): 27.2%; activity at 2 µg/mL ([2]; Plasmodium falciparum, 3D7, P. falciparum, 120 h, screen at 2 μg/mL, replicate 2, read-out: Pf_120h_%Growth_Rep2): 12.3%; percent parasite growth at 2 µg/mL [3, 10]: 106%; percent parasite growth at 2 µg/mL [3, 11]: 98%
C[C@H]1CCC[C@@H](O)CCCCCc2cc(O)cc(O)c2C(=O)O1 [Zearalanol, beta-] | – | – | – | – | – | – | Pf_72h_%Growth_Rep1 ([1]; P. falciparum, 72 h, screen at 2 μg/mL, replicate 1): 81.97%; Pf_72h_%Growth_Rep2 ([1]; P. falciparum, 72 h, screen at 2 μg/mL, replicate 2): 86.14%; Pf_120h_%Growth_Rep1 ([2]; P. falciparum, 120 h, screen at 2 μg/mL, replicate 1): 90.97%; Pf_120h_%Growth_Rep2 ([2]; P. falciparum, 120 h, screen at 2 μg/mL, replicate 2): 85.38%; Tg_72h_%Growth_Rep1 ([3]; T. gondii, screen at 2 μg/mL, replicate 1): 150.26%; Tg_72h_%Growth_Rep2 ([3]; T. gondii, screen at 2 μg/mL, replicate 2): 92.47%
CC[C@H](C)[C@H]1O[C@]2(C=C[C@@H]1C)C[C@@H]1C[C@@H](C/C=C(\C)[C@@H](O[C@H]3C[C@H](OC)[C@@H](O[C@H]4C[C@H](OC)[C@@H](O)[C@H](C)O4)[C@H](C)O3)[C@@H](C)/C=C/C=C3\CO[C@@H]4[C@H](O)C(C)=C[C@H](C(=O)O1)[C@]34O)O2 [Avermectin B1a, epi-] | 8.49 | 20.73 | 5.66 | -2.43 | 34.09 | 40.50 | –
